The values that follow come from patent US20260283205A1, “ACYLATED DIHYDROCHALCONES, METHODS OF PRODUCTION AND USES THEREOF” (SYMRISE AG, priority 2023, published 2026).

Test [1] concerns trained sensory panel (n=20). The experiment in a line: Paired comparison tests (Duo test): sweetness increase of 5% sucrose solution in water. Format: in vivo. Further details: unit not given here. Conditions: dosage HG 50, compound 9 10, 41 5, 57 3, 73 5, 89 5 mg/kg. The protocol: The sensory impact of the compounds 9, 41, 57, 73 and 89 on a 5% sucrose solution in water was analysed by a trained sensory panel (n=20) using a series of paired comparison tests (Duo test). The samples were coded and randomized.

Test [2] concerns panel of 20 trained panellists. As to the kind of experiment: Intrinsic sweetness: concentration in water equally sweet as a 1.5% sucrose solution. To be noted: no significant difference (p<0.05) to 1.5% sucrose. Format: in vivo. The protocol: Compounds 9, 41, 57, 73 and 89 were provided as described in Example 3 and purified to >95% with preparative chromatography. The obtained compounds were used for sensory evaluations.
The intrinsic sweetness of the compounds was determined by a panel of 20 trained panellists. The intrinsic sweetness of a compound is determined by evaluating the sweetness of the compound at different concentrations in water against a 1.5% sucrose solution.
A mixture of butanoylated HG and a mixture of pentanoylated HG were provided as described in Example 3.
The intrinsic sweetness was determined as described in Example 4. As shown in the table, the concentrations of the acylated compounds, which represent equal sweetness as the 1.5% sucrose solution, are approximately ⅕ to ⅛ of the required concentration of HG (non-acylated). Thus, acylation of HG provides a strong increase of the intrinsic sweetness.

For another test, the system named is trained flavourist panel. The experiment in a line: Sensory profile (impact, intensity, mouthfeel, lingering sweetness) of 5% sucrose solution with added compound. Format: in vivo. The protocol: A 5% sucrose solution was prepared. Compounds 9, 41, 57, 73 and 89 were provided as described in Example 3 and purified to >95% with preparative chromatography.
The sensory profile of the sucrose solution (control) and the sucrose solution including HG (control), compounds 9, 41, 57, 73 or 89 was determined by a trained flavourist panel comparing the impact, intensity and mouthfeel.

For test [3] the following is noted: cited from earlier work.
Where [4] appears, read: 5% sucrose solution (A1) + HG 50 ppm, compound 9 15 ppm, 41 5 ppm, 57 3 ppm, 73 5 ppm, 89 5 ppm, sucrose alone scores 4.

Take `COc1ccc(CCC(=O)c2c(O)cc(O[C@H]3O[C@@H](CO)[C@H](O)[C@@H](O)[C@@H]3O)cc2O)cc1O` [HG, hesperetin dihydrochalcone-4′-O-β-d-glucoside, reference compound]: the Increase of sweetness in test [1] stood at 34.6. Moreover, in test [2], the “Concentration of equal sweetness as 1.5% sucrose control” value was 50 mg/kg. In the test on trained flavourist panel (5% sucrose solution), the “effect on impact, intensity and mouthfeel of the sucrose solution” value is “increases the impact, intensity and mouthfeel”. The Lingering sweetness in the test on trained flavourist panel (5% sucrose solution (A1) + HG 50 ppm, compound 9 15 ppm, 41 5 ppm, 57 3 ppm, 73 5 ppm, 89 5 ppm, sucrose alone scores 1) worked out at 2. Further, the Impact with trained flavourist panel (5% sucrose solution (A1) + HG 50 ppm, compound 9 15 ppm, 41 5 ppm, 57 3 ppm, 73 5 ppm, 89 5 ppm, sucrose alone scores 3) is 4. Besides, in the test with trained flavourist panel (setting [4]), the Intensity is 5 and the Mouthfeel is 4-5. For the same compound, in test [3] (5 mg/kg HG in water), the “sweet taste of HG in water” value is “does not taste sweet”. Moreover, the isosweet sucrose concentration in test [3] (10 mg/kg HG in water) is reported as 0.5%. In addition, the “isosweet sucrose solution concentration” value in test [3] (20 mg/kg HG in water) is 1%.
